Assay results: patent US12264185B2, “Stabilized BCL9 peptides for treatment of aberrant Wnt signaling” (WntRx Pharmaceuticals Inc., priority 2015, dated 2025)
Where “and” joins values, the source holds several entries; their conditions need not be identical. Equal entries are not always repeated.

Assays:
[1] = Preliminary solubility study; format: physicochemical; details: water, DMSO, and PBS
[2] = Pharmacokinetics in male ICR mice; details: mouse, plasma, 5 mg/kg
Description: The tail vein was used for i.v. injections. […] Following injections, blood samples were obtained via the retro-orbital vein at 5 min, 1, 2, 4, 6, 8, 12, and 24 hours postdose. Plasma was obtained from the blood samples following mixing with sodium heparin and centrifugation.
LC analysis was done using an Agilent 100 HPLC. MS analysis was done using an AB Sciex API 4000. Calibration standards were prepared by serial dilution.
The maximum observed concentration (Cmax), terminal half-life (T1/2), total body clearance (CL), volume of distribution (Vz), area under the curve from the time of dosing to the last measurable concentration (AUC0-t), area under the curve from the time of dosing extrapolated to infinity (AUC0-inf), and bioavailability were calculated using noncompartmental analysis modules in the FDA-certified pharmacokinetic program WinNonlin Professional v5.2 (Pharsight).
Briefly, the mice were administered 1 mg/kg or 5 mg/kg intravenously, or 5 mg/kg intraperitoneally. Blood samples were collected at 15 min, 1, 2, 3, 6, 8, 12, and 24 hours post administration.

CT26 cells = test: CT26 syngeneic mouse model of colon cancer (Balb/c); format: in vivo, mice
Description: The syngeneic mouse model of colon cancer using CT26 was then assessed. Male Balb/c mice were injected subcutaneously in the right flank with 5×10^4 CT26 cells each at approximately 5 weeks of age. […] Eight mice were included in each treatment group.
The whole blood was taken from each mouse. Lymphocytes were purified from the blood samples by Ficoll, and the cells were stained with fluorescent anti-CD4 antibody. Data were measured by flow cytometry.
As described above, the whole blood was taken from each mouse. Lymphocytes were purified from blood by Ficoll, and the cells were stained with fluorescent anti-CD8 antibody. Data were measured by flow cytometry.
To further assess whether WX-024 is capable of modulating a tumor microenvironment, tumor and blood samples were collected in anticoagulation tubes at the end of the study. Single cells separation was performed and then cells were stained for FACS analysis. For cell surface staining, CD45-PerCP-Cy5, CD4-FITC, CD8-PE-Cy7, and CD25-PE were used. For intranuclear staining, cells were permeabilized overnight and then stained with Foxp3-APC for 60 minutes.
The in vivo efficacy of WX-035 in treating a cancer was assessed in a syngeneic mouse model, following the procedures described in Example 5.3. Trametinib, a known MEK inhibitor, was used as a comparison. Briefly, balb/c mice were inoculated with CT26 and treatment started when tumor volume reached to about 100 mm^3. The mice were then divided into three groups and began administered with a vehicle, 40 mg/kg WX-035, or 1 mg/kg trametinib for 7 consecutive days.
At the end of the study described in Example 9.2, a tumor sample from each mouse was collected to assess the effect of WX-035 in modulating T cell activation. The FACS analysis of each tumor sample was performed following the procedure described in Example 5. A shown in FIG. 36A, treatment with WX-035 reduced the total amount of CD45^+ cells. […] Likewise, Foxp3^+ CD25^+ T cells were reduced by WX-035 treatment (FIG. 36C). […] Furthermore, by increasing the ratio of cytotoxic T cells over regulatory T cells, WX-035 may induce a microenvironment that favors an immune reaction beneficial for tumor treatment. Of note, the samples collected from this experiment were also assessed for LGR5 expression.

Colo320DM tumor cells = test: Colo320DM colon cancer xenograft model in BALB/c nude mice; format: in vivo; details: for tumor volume (mean±standard error of mean) / tumor volume smaller than vehicle-treated group: Day 14
Description: Based on the favorable PK profile of WX-024 in mice, as described above, the efficacy of WX-024 was investigated in a mouse xenograft colon cancer model. The Colo320DM colon cancer model in BALB/c nude mice was employed, in which Colo320DM cells are injected subcutaneously into BALB/c nude mice.
Colo320DM tumor cells (ATCC) were cultured in RPMI1640 medium (GIBCO, Cat #31800022) supplemented with 10% heat-inactivated fetal bovine serum at 37° C. Harvesting of Colo320DM cells was done when cells were growing in an exponential growth phase. Female BALB/c nude mice (Shanghai Laboratory Animal Center) were used for the study at 6-8 weeks of age. Animals had free access to water and irradiation sterilized food throughout the study period. Each mouse (n=16) was inoculated subcutaneously in the right flank region with 5×10^6 Colo320DM tumor cells in 0.1 mL of PBS. Tumors were allowed to develop for 14 days after inoculation, at which time the mean tumor size was 156.78 mm^3. During the study, the care and use of animals was conducted in accordance with the Association for Assessment and Accreditation of Laboratory Animal Care (AAALAC). Following inoculation of tumor cells, animals were checked daily for morbidity and mortality. The body weight of each animal was monitored throughout the study.
4% ethanol+8% Tween 80+88% 10 mM PBS was used as a vehicle. All treatments were administered once daily. The WX-024 solution was dissolved in pure DMSO and then diluted with sterile water. The dosing volume was adjusted for body weight such that the dosing volume for each animal was 0.05 mL/10 g of body weight for i.v. dosing. The treatment period was 14 days.
All treatments were begun as daily i.v. dosing. […] The injection method was changed to i.p. injection at Day 7 for the 10 mg/kg and 15 mg/kg groups. Dosing via i.p. injection (with the dosing volume adjusted to 0.1 ml/10 g) was maintained for the 10 and 15 mg/kg groups from Day 7 of the treatment period onwards, and the body weight of these animals stabilized.
Tumor volumes were measured in two dimensions using a caliper at Days 0, 3, 5, 7, 9, 11, 14 of the treatment period (all dosing starting after 14 days of tumor development). The volume of the tumor was measured using the equation: V=0.5 a×b^2, wherein a and b are the long and short diameters of the tumor, respectively. Tumor volumes are expressed in mm^3. At the end of the study (i.e., following 22 days of treatment) the tumor mass weight was measured.
At the conclusion of the Colo320DM model, tumor and intestinal samples were collected, fixed in formalin, and imbedded in paraffin using standard techniques. Four μm-thick section of tissue were prepared for immunohistochemistry (IHC) staining. The tissue sections were deparaffinized and rehydrated via sequential washing with xylene, graded ethanol and phosphate-buffered saline (PBS). Following deparaffinization and rehydration, the tissue sections were subjected to high temperature-induced epitope retrieval in target retrieval solution (10 mM citrate buffer; pH 6.0).
Antibody binding was detected using an UltraVision Quanto Detection System (Thermo, Cat #TL-060-QHD) kit following the manufacturer's instructions. The sections were treated with Hydrogen Peroxide Block and Ultra V Block (provided in the kit) and then incubated with primary antibody overnight at 4° C.: CD44 (Abcam, Cat #ab157107 diluted 1:500), Axin (LSBio, Rabbit IgG, Cat #LS-B7029, Lot #51907, Stock Conc.: 1000 ug/ml), or VEGFA (VEGFA: LS Bio, Rabbit IgG, Cat #LS-B10263, Lot #65323, Stock Conc.: 1000 ug/ml). Rabbit IgG replaced the primary antibody in the negative control. All sections were counterstained with hematoxylin, dehydrated and mounted. IHC images were taken with an Olympus CKX31SF reverse microscope.

[3] = 20 mg/kg, after 2 weeks of daily dosing

## CC[C@H](C)[C@@H]1NC(=O)[C@@](C)(NC(=O)[C@H](CCCNC(=N)N)NC(=O)[C@H](CC(C)C)NC(=O)[C@@H](NC(=O)[C@H](CCC(N)=O)NC(=O)[C@H](CC(C)C)NC(C)=O)[C@@H](C)O)CCCC=CCCC[C@@](C)(C(=O)N[C@@H](CC(C)C)C(=O)N[C@@H](Cc2ccc3ccccc3c2)C(N)=O)NC(=O)[C@H](CCCNC(=N)N)NC(=O)[C@H](CCC(N)=O)NC1=O [WX-024, LQTLRXaa1IQRXaa2L]
[1]
  solubility: ≥ 1 mg/mL
[2]; ip
  bioavailability: 73.6%
[2]; iv
  Cmax: 47400 ng/mL and > 30 µM
CT26 cells; 20 mg/kg i.p. daily, 14 days
  tumor volume over time compared to vehicle: substantially lower
CT26 cells; 20 mg/kg i.p. daily, after 3 days of dosing
  tumor growth inhibition (TGI): 89.2%
CT26 cells; 20 mg/kg i.p. daily, after 12 days of dosing
  tumor growth inhibition (TGI): 70.0%
CT26 cells; 20 mg/kg, 14 days
  active β-catenin expression in tumors: capable of suppressing active β-catenin expression in tumors
CT26 cells; [3]
  CD4+ T cell counts in blood: increase
  CD8+ T cell counts in blood: increase
CT26 cells; 20 mg/kg, end of study
  regulatory T cells in CD4+ T cell populations in tumor: significantly reduced
Colo320DM tumor cells; 5 mg/kg i.v. throughout the study
  effect on body weight: without an apparent effect on body weight
Colo320DM tumor cells; 5 mg/kg
  tumor volume (mean±standard error of mean): 2039±373.29 mm^3
Colo320DM tumor cells; 10 mg/kg (i.v. then i.p. from Day 7)
  tumor volume (mean±standard error of mean): 1370±114.39 mm^3
Colo320DM tumor cells; 10 mg/kg or 15 mg/kg, 22 days
  intestinal morphology: maintained
Colo320DM tumor cells; 10 mg/kg
  tumor volume smaller than vehicle-treated group: 44.9%
Colo320DM tumor cells; 15 mg/kg (i.v. then i.p. from Day 7)
  tumor volume (mean±standard error of mean): 1157.6±99.04 mm^3
Colo320DM tumor cells; 15 mg/kg i.v. daily, after 3 days of treatment
  average body weight loss compared to vehicle: approximately 11%
Colo320DM tumor cells; 15 mg/kg, 22 days
  Axin 2 staining of intestine: decreased Axin 2 staining
  CD44 staining of tumor: decrease in CD44 staining
Colo320DM tumor cells; 15 mg/kg
  tumor volume smaller than vehicle-treated group: 53.2%
Colo320DM tumor cells; 10 or 15 mg/kg, 22 days of treatment
  tumor mass weight: substantially less than tumor mass of vehicle-treated mice
Colo320DM tumor cells; Colo320DM xenograft
  IC50, preliminary dose-response correlation with predicted tumor size: 12.69 mg/kg
Colo320DM tumor cells; immunohistochemistry
  VEGFA expression in tumors: capable of suppressing VEGFA expression in tumors
